Laboratory results from US20230203041A1, “ANTAGONISTS OF THE ADENOSINE A2A RECEPTOR” (AdoRx Therapeutics Limited, priority 2020, published 2023).
pKi: −log10 of the molar value. Where a name gives a salt, the structure may show the parent alone.

Legend:
[1] = target: T1, human Adenosine A2a receptor (Homo sapiens, UniProt P29274); assay: Adenosine receptor TR-FRET binding assay (CA200645 displacement), A2a; conditions: 100 nM CA200645, CHO cell membranes, 2 hours at room temperature
T1 construct: expressed in transfected cells; host or cells: CHO cell membranes

[2] = target: T2, human Adenosine A3 receptor (Homo sapiens, UniProt P0DMS8); assay: Adenosine receptor TR-FRET binding assay (CA200645 displacement), A3
T2 sequence (P0DMS8 1-318): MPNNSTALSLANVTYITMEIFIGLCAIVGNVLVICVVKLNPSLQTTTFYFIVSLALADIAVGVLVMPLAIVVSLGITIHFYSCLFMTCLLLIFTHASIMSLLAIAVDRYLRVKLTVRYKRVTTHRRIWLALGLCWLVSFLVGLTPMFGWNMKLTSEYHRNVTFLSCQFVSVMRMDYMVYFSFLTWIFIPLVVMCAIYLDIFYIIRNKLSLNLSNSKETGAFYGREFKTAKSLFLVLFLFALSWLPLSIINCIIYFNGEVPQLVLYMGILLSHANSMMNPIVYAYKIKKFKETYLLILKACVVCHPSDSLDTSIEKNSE
Protocol: All FRET binding experiments were conducted at room temperature in white 384-well plates, in assay binding buffer containing 1×LabMed (Cisbio, France), 100 μg/mL saponin, 1% DMSO and 0.02% pluronic acid. Binding of the fluorescently labelled Adenosine receptor antagonist XAC (CA200645, FRET acceptor) to terbium-labelled A1, A2a, A2b and A3 adenosine receptors (FRET donors) was detected by time-resolved FRET due to the close proximity of the donor and acceptor in a binding event. To investigate the ability of unlabelled test compounds to bind to Adenosine A1, A2a, A2b and A3 receptors, dose response curves were constructed that determined the ability of a range of concentrations to inhibit the binding of 30 nM CA200645 to the A2b receptor and 100 nM CA200645 to the A1, A2a, and A3 receptor.
Serial dilution (1:3 dilutions) of test compounds in neat DMSO and transfer of a 400 nL sample of test compound into the assay plate was carried out using the Mosquito (TTP Labtech, UK). The compound samples were incubated for 2 hours at room temperature with a fixed concentration of CA200645 defined for each receptor (see above) and CHO cell membranes containing the human Adenosine A1 (0.5 μg/well), A2a (0.3 μg/well), A2b (1 μg/well) or A3 (1 μg/well) receptor in 40 μL of assay buffer. Total and non-specific binding of CA200645 was determined in the absence and presence of 10 μM XAC, respectively. Following 2 hours incubation, the level of CA200645 binding was detected on a Pherastar FSX (BMG Labtech, Germany) using standard TR-FRET settings. The terbium donor was excited with three laser flashes at a wavelength of 337 nm, and donor and acceptor emission was detected at 620 nm and 665 nm wavelengths, respectively. FRET ratios were obtained by multiplying the acceptor/donor ratio value by 10,000. Specific binding was determined by subtracting the non-specific binding FRET ratio from the total binding FRET ratio. Compound IC50 curves were analysed using GraphPad Prism 7.0 (GraphPad, USA) and Ki affinity values were determined from the obtained IC50 values using the method of Cheng and Prusoff.

[3] = target: T3, human Adenosine A2b receptor (Homo sapiens, UniProt P29275); assay: Adenosine receptor TR-FRET binding assay (CA200645 displacement), A2b; conditions: 30 nM CA200645, CHO cell membranes, 2 hours at room temperature
T3 construct: expressed in transfected cells; host or cells: CHO cell membranes
T3 sequence (P29275 1-332): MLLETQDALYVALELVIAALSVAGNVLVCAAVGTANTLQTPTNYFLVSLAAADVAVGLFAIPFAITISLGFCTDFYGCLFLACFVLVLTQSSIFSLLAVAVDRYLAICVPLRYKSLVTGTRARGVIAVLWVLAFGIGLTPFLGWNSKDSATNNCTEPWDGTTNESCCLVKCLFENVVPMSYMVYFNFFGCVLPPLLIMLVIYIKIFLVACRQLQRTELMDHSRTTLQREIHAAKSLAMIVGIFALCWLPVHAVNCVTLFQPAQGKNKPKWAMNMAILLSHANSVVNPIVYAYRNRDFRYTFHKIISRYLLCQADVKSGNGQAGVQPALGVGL

[4] = target: T4, human Adenosine A1 receptor (Homo sapiens, UniProt P30542); assay: Adenosine receptor TR-FRET binding assay (CA200645 displacement), A1
T4 sequence (P30542 1-326): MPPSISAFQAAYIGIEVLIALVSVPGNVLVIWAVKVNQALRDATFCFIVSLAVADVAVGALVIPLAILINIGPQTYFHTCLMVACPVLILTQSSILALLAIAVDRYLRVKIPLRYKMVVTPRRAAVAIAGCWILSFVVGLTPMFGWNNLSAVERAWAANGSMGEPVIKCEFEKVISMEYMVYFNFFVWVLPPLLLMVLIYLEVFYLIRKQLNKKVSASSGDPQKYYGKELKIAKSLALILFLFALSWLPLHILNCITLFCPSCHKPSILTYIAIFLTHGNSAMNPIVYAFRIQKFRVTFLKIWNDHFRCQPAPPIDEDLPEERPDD

T1 sequence (P29274 whole entry): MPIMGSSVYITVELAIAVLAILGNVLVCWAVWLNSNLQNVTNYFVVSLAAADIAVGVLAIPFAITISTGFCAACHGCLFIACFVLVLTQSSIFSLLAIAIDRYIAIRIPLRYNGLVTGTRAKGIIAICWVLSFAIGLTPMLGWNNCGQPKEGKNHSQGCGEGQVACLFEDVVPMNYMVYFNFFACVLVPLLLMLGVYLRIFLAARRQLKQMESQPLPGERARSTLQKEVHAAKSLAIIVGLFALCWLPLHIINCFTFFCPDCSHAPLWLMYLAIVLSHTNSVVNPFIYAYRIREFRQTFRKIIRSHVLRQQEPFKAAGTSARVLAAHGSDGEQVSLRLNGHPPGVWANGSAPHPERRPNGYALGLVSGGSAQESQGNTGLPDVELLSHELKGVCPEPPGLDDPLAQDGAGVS

Row | SMILES | pKi [1] | pKi [2] | pKi [3] | pKi [4]
1 | Cc1cc(-c2c(-c3cccc(C#N)c3)nn3ccc(NC(=O)C(C)(C)C)nc23)cc(Cl)n1 [Example 95, N-[3-(2-Chloro-6-methyl-4-pyridyl)-2-(3-cyanophenyl)pyrazolo[1,5-a]pyrimidin-5-yl]-2,2-dimethyl-propanamide] | 8.57 | < 6.00 | 7.51 | 6.84
2 | Cc1cc(-c2c(-c3cccc(C#N)c3)nn3ccc(NC4CCS(=O)(=O)CC4)nc23)cc(Cl)n1 [Example 2.27] | 7.97 | < 6.00 | 7.37 | 6.50
3 | Cc1cc(-c2c(-c3cccc(C#N)c3)nn3ccc(N[C@H]4CCOC4)nc23)cc(Cl)n1 [Example 2.25] | 8.12 | < 6.00 | 7.57 | 6.17
4 | Cc1cc(-c2c(-c3cccc(C#N)c3)nn3ccc(N4CCS(=N)(=O)CC4)nc23)cc(Cl)n1 [Example 2.26] | 8.11 | < 6.00 | 7.64 | 6.44
5 | Cc1cc(-c2c(-c3cccc(C#N)c3)nn3ccc(N[C@H]4CCCNC4)nc23)cc(Cl)n1 [Example 4.7] | 7.86 | < 6.00 | 8.22 | 6.67
6 | c1coc(-c2cc3nc(NCc4nccs4)ccn3n2)c1 [Example 74, 2-(2-Furyl)-N-(thiazol-2-ylmethyl)pyrazolo[1,5-a]pyrimidin-5-amine] | 6.23 | 6.80 | 5.20 | 6.19
7 | Cc1cc(-c2c(-c3cccc(C#N)c3)nn3ccc(N4C[C@@H]5NCCO[C@H]5C4)nc23)cc(Cl)n1 [Example 4.4] | 8.49 | < 6.00 | 6.83 | 5.96
8 | Cc1cc(-c2c(-c3cccc(C#N)c3)nn3ccc(NC4CCN(CCO)CC4)nc23)cc(Cl)n1 [Example 2.39] | 8.85 | < 6.00 | 8.70 | 6.62
9 | CCn1nccc1-c1c(-c2cccc(C#N)c2)nn2ccc(N3CC4CCC(C3)N4C)nc12 [Example 33.3] | 7.54 | < 6.00 | 6.15 | 7.17
10 | Cc1cc(-c2c(-c3cccc(C#N)c3)nn3ccc(C(=O)NC4CCNCC4)nc23)cc(Cl)n1 [Example 7.15, 3-(2-Chloro-6-methyl-4-pyridyl)-2-(3-cyanophenyl)-N-(4-piperidyl)pyrazolo[1,5-a]pyrimidine-5-carboxamide] | 7.66 | < 6.00 | 7.60 | 6.15
11 | Cc1cc(-c2c(-c3cccc(C#N)c3)nn3ccc(C(=O)N[C@H](C)CO)nc23)cc(Cl)n1 [Example 6.6, 3-(2-Chloro-6-methyl-4-pyridyl)-2-(3-cyanophenyl)-N-[(1R)-2-hydroxy-1-methyl-ethyl]pyrazolo[1,5-a]pyrimidine-5-carboxamide] | 9.05 | < 6.00 | 7.46 | 6.41
12 | CCn1nccc1-c1c(-c2cccc(C#N)c2)nn2ccc(N)nc12 [Example 1.3] | 7.13 | < 6.00 | 7.80 | 6.71
13 | N#Cc1c(-c2ccco2)nn2ccc(NC[C@H]3CCCNC3)nc12 [Example 56, 2-(2-Furyl)-5-(3-piperidylmethylamino)pyrazolo[1,5-a]pyrimidine-3-carbonitrile hydrochloride] | 6.85 | < 6.00 | 5.57 | 6.28
14 | Cc1cc(-c2c(-c3cccc(C#N)c3)nn3ccc(NCCN4CCOCC4)nc23)cc(Cl)n1 [Example 2.19] | 8.55 | < 6.00 | 7.68 | 7.49
15 | Cc1cc(-c2c(-c3cccc(C#N)c3)nn3ccc(NCC4(O)CNC4)nc23)cc(Cl)n1 [Example 4.11, 3-[3-(2-chloro-6-methyl-4-pyridyl)-5-[(3-hydroxyazetidin-3-yl)methylamino]pyrazolo[1,5-a]pyrimidin-2-yl]benzonitrile trifluoroacetate] | 8.17 | < 6.00 | 9.00 | 7.28
16 | Cc1cc(-c2c(-c3cccc(C#N)c3)nn3ccc(O)nc23)cc(Cl)n1 [Example 2.31] | 7.80 | < 6.00 | 7.15 | 6.26
17 | Cc1cc(-c2c(-c3cccc(C#N)c3)nn3ccc(C(=O)NCC4(O)CCNC4)nc23)cc(Cl)n1 (stereo not shown) [Example 7.6, 3-(2-Chloro-6-methyl-4-pyridyl)-2-(3-cyanophenyl)-N-[(3-hydroxypyrrolidin-3-yl)methyl]pyrazolo[1,5-a]pyrimidine-5-carboxamide] | 8.17 | < 6.00 | 7.89 | 6.17
18 | Cc1cc(-c2c(-c3cccc(C#N)c3)nn3ccc(NCC(C)(C)N)nc23)cc(Cl)n1 [Example 4.10, trifluoroacetate] | 8.48 | < 6.00 | 7.92 | 7.37
19 | Cc1cc(-c2c(-c3cccc(C#N)c3)nn3ccc(C(=O)NC4(C(N)=O)CCNCC4)nc23)cc(Cl)n1 (single isomer, unassigned) [Example 7.17, N-(4-Carbamoyl-4-piperidyl)-3-(2-chloro-6-methyl-4-pyridyl)-2-(3-cyanophenyl)pyrazolo[1,5-a]pyrimidine-5-carboxamide] | 7.79 | < 6.00 | 7.17 | 6.55
20 | Cc1cc(-c2c(-c3cccc(C#N)c3)nn3ccc(N)nc23)cc(F)n1 [Example 26.4, 3-[5-Amino-3-(2-fluoro-6-methyl-4-pyridyl)pyrazolo[1,5-a]pyrimidin-2-yl]benzonitrile] | 8.00 | 6.24 | 7.80 | 8.22

Next, values leading:

Row | pKi [1] | pKi [2] | pKi [3] | pKi [4] | SMILES
21 | 9.15 | < 6.00 | 7.29 | 7.55 | Cc1cc(-c2c(-c3cccc(C#N)c3)nn3ccc(C(=O)NCC4(C)CCC(=O)NC4)nc23)cc(C)n1 (stereo not shown) [Example 92.18]
22 | 6.51 | 6.03 | 5.88 | 6.50 | N#Cc1c(-c2ccco2)nn2ccc(NCCN3CCN(Cc4ccccc4)CC3)nc12 [Example 37.12]
23 | 7.16 | < 6.00 | 7.44 | 6.40 | N#Cc1c(-c2ccco2)nn2ccc(NCC3CCN(Cc4ccccc4)CC3)nc12 [Example 37.9]
24 | 6.36 | < 6.00 | 6.38 | 5.75 | CCn1nccc1-c1c(-c2cccc(C#N)c2)nn2ccc(N3CCS(=N)(=O)CC3)nc12 [Example 33.7]
25 | 9.15 | < 6.00 | 7.23 | 6.63 | Cc1cc(-c2c(-c3cccc(C#N)c3)nn3ccc(C(=O)NCC4(C)CCC(=O)N4)nc23)cc(C)n1 (stereo not shown) [Example 92.16]
26 | 7.04 | < 6.00 | 7.77 | 6.91 | CCn1nccc1-c1c(-c2cccc(C#N)c2)nn2ccc(NCc3nnc[nH]3)nc12 [Example 33.5]
27 | 8.72 | < 6.00 | 7.47 | 6.39 | Cc1cc(-c2c(-c3cccc(C#N)c3)nn3ccc(C(=O)N[C@H]4COC[C@@H]4O)nc23)cc(C)n1 [Example 92.29]
28 | 8.77 | < 6.00 | 7.74 | 7.46 | Cc1cc(-c2c(-c3cccc(C#N)c3)nn3ccc(NC4CCN(C)C(=O)C4)nc23)cc(C)n1 (stereo not shown) [Example 105.2, 3-[3-(2,6-Dimethyl-4-pyridyl)-5-[(1-methyl-2-oxo-4-piperidyl)amino]pyrazolo[1,5-a]pyrimidin-2-yl]benzonitrile]
29 | 8.18 | < 6.00 | 7.80 | 6.68 | Cc1cc(-c2c(-c3cccc(C#N)c3)nn3ccc(C(=O)NC[C@H]4CNC(=O)C4)nc23)cc(C)n1 [Example 92.27]
30 | 8.24 | < 6.00 | 7.66 | 6.76 | Cc1cc(-c2c(-c3cccc(C#N)c3)nn3ccc(C(=O)NCC4CNC(=O)C4)nc23)cc(C)n1 (stereo not shown) [Example 92.26]
31 | 8.27 | < 6.00 | 7.16 | 6.20 | Cc1cc(-c2c(-c3cccc(C#N)c3)nn3ccc(C(=O)NC4CNC(=O)C4)nc23)cc(C)n1 (stereo not shown) [Example 92.25]
